The record followed here is patent US20240018125A1, “CYCLIC ISOTHIOUREA DERIVATIVES AS CXCR4 MODULATORS” (ERMIUM THERAPEUTICS, priority 2020, published 2024).

The test system of assay [1] is peripheral blood mononuclear cells (PBMCs) from healthy donors. The assay is described as follows: IFN production by R848-activated PBMCs, quantified with twINNE luciferase reporter cell line. The format is cell-based, human. The settings on record: Homo sapiens, PBMC; read-out: IC50 of anti-inflammatory activity (IFN production by activated PBMCs). The gist of the method:
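Functional IFN was quantified by luciferase output from the twINNE ISRE-reporter line after 24 h on conditioned supernatants. Those supernatants came from human PBMCs (4.10^6/mL) pre-treated with compound and then stimulated for 24 h with 5 μg/mL resiquimod. IC50s were fitted by nonlinear variable-slope regression.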
In general terms: Reporter assays use an easily measured gene product as a stand-in for the process of interest.

Assay [2] deals with 129S8 mice infected with influenza A virus H3 N2 (X31). As to the kind of experiment: In vivo immunomodulating effect (type 1 IFNs in BALF) in acute influenza inflammation model. More on the design: species or system mouse. The settings on record: […]; even lower than after ibuprofen.
Assay [3] has as its system irrelevant G-protein coupled receptor (GPCR). As to the kind of experiment: G.Validation fluorescence assay on irrelevant GPCR control. The settings on record: SDF1α 15 μM, AMD3100 100 μM, Example 60 150 μM; SB3L1. The format is biochemical.
Assay [4] deals with Female Balb/c mice, pristane-induced lupus. The assay is described as follows: In vivo pristane-induced lupus mouse model, anti-dsDNA antibody titers in serum by ELISA. On the procedure: Female Balb/c mice (6 to 8 weeks, ENVIGO, Indianapolis, USA) received a single i.p. injection with 0.5 mL of pristane (Sigma-Aldrich, St Louis, USA) to induce a lupus-like disease. That same day, once daily treatment was started (10 mL/kg), either with vehicle control (PBS) i.p., with prednisolone (Sigma-Aldrich, St Louis, USA) in PBS p.o. at a dose of 15 mg/kg (positive control), or with an exemplary compound of formula (I), i.e. Example 60, at a dose of either 3 mg/kg, 10 mg/kg or 30 mg/kg in PBS i.p. After 4, 6 and 8 weeks of dosing, sample bleeds for each mouse were collected via the orbital sinus, and immediately cold processed to sera and stored (50 μl) at −80° C. until analysis. In serum, anti-dsDNA antibody titers are determined using ELISA. Optical density was measured at 450 nm (OD450) using a microplate reader. Data are reported as anti-dsDNA Ab titers (OD), mean±S.E.M. as well as the statistical significance versus pristane-induced vehicle treated group using t-tests.
In general terms: ELISA stands for enzyme-linked immunosorbent assay.

Assay [5] has as its system Male C57BL/6 Rj mice. The assay is described as follows: In vivo evaluation of CXCR4 antagonistic activity by mobilisation of blood cells. More on the design: species or system mouse. Conditions: 30 mg/kg single i.p., 2:30 h after injection; shown also for neutrophils, monocytes, lymphocytes, eosinophils. On the procedure:
Male C57BL/6 Rj mice (7 weeks old) were obtained from Janvier (Le Genest-Saint-Isle, France). Mice were treated by a single intraperitoneal (i.p.) administration at timepoint 0 h. The experimental groups (n=10) were defined as follows: • Mice of group 1 were treated with vehicle only (0.9% NaCl aqueous solution) • Mice of group 2 were treated with AMD3100 (CXCR4 antagonist, Sigma-Aldrich, St Louis, USA) at 20 mg/kg (volume of 10 mL/kg) in 0.9% NaCl aqueous solution • Mice of group 3 were treated with an exemplary compound of formula (I), i.e. Example 60, at 30 mg/kg (volume of 10 mL/kg) in 0.9% NaCl aqueous solution
After 2:30 h, whole blood (at least 200 μl, max 1 mL) was collected in EDTA tubes before sacrifice by an intracardiac puncture under isoflurane anaesthesia and haematology parameters were determined the same day by laser flow cytometry, optical fluorescence and Laminar Flow Impedance™ using the ProCyte Dx hematology analyser (IDEXX, Eau Claire, USA). Differential leukocyte counts were performed to quantify specific immune cell types. Data are reported as total number of cells (K/μL), mean±S.E.M., as well as the statistical significance versus the vehicle control group using unpaired t-tests.

Where a name gives a salt, the structure may show the parent alone. Some results are limits rather than exact numbers.

Broadly, the IC50 is the concentration that inhibits the measured activity by half. For the compound `Clc1ccc2c(c1)CN=C(SCCCCN1CCCC1)N2` [Example 60, 6-chloro-2-((4-(pyrrolidin-1-yl)butyl)thio)-1,4-dihydroquinazoline dihydrochloride], the IC50 in assay [1] is at most 10 µM. In addition, the “concentration of IFNα in BALF vs vehicle-treated infected mice” value in assay [2] was “significantly decreased”. In addition, the “concentration of IFNβ in BALF vs vehicle-treated infected mice” value in assay [2] was “significantly decreased”. The “concentration of IFNλ2/3 in BALF vs vehicle-treated infected mice” value in assay [2] was “significantly decreased”. Also, in assay [3], the “irrelevant GPCR activation state, Amax shift in fluorescence” value was “Neither benchmark ligands SDF1α and AMD3100, nor Example 60 showed any effect”. The “anti-dsDNA Ab titers in serum vs vehicle-treated pristane-induced mice” value was “reduced” in assay [4] (3 mg/kg i.p. once daily, week 4); “reduced” in assay [4] (10 mg/kg i.p. once daily, week 4); “significantly decreased” in assay [4] (10 mg/kg i.p. once daily, week 8, same range as prednisolone); “reduced” in assay [4] (30 mg/kg i.p. once daily, week 4); “significantly lower” in assay [4] (30 mg/kg i.p. once daily, week 6); “significantly decreased” in assay [4] (30 mg/kg i.p. once daily, week 8, same range as prednisolone). Besides, the “numbers of white blood cells in the blood vs vehicle control” value in assay [5] is reported as “not increased”.
